Results on five compounds are retold here after publication PMC10394814, “Discovery and evaluation of active compounds from Xuanfei Baidu formula against COVID-19 via SARS-CoV-2 M^pro” (Chinese Medicine, 2023).

Like-named read-outs stand apart in the source and are kept apart here.

The target of data set [1] is T1, SARS-CoV-2 M^pro (Severe acute respiratory syndrome coronavirus 2, UniProt P0DTD1). The data set is described as follows: FRET screening of SARS-CoV-2 M^pro inhibitors. It is filed as biochemical. The conditions noted are these: for inhibition at 40 µM: read-out: inhibition rate; for IC50: n = 5. The protocol: FRET screening was carried out for identifying the inhibitors of SARS-CoV-2 M^pro. […] The screening system was established by employing M^pro (200 nM), substrate (20 µM), and the tested compounds with the different concentrations from 0.039 to 160 µM. The excitation and emission wavelength were set at 320 and 405 nm, separately. The data was analyzed with Graphpad prism 9.0 and all experiments were performed in triplicates.

The target of data set [2] is T1, SARS-CoV-2 M^pro. The data set is described as follows: SPR binding affinity to M^pro (Biacore T200, CM5 chip). The conditions noted are these: for kon / koff: kinetic mode; for kon: read-out: Ka (association rate constant); for koff: read-out: Kd (dissociation rate constant). On the procedure: SPR assay. Biacore T200 system was used for SPR assay. M^pro was conjugated to a sensor Chip (CM5) via amino coupling reaction. The tested compounds were diluted with the running buffer (1.05 × PBS-P, 5% DMSO) to reach the working concentration of 0.977–500 µM, being injected into the channels at a flow rate of 30 µL/min. The coupling time and the dissociation time were respectively set at 60 s and 120 s or 180 s. The data were analyzed for fitting the equilibrium dissociation constant (KD).

Data set [3] addresses T1, SARS-CoV-2 M^pro. The data set is described as follows: ITC measurement of binding to M^pro. Particulars: ITC at 298 K. For orientation: In ITC the heat of successive injections is recorded.
The nature of another data set: in vitro. Type of data set: cell-based. The conditions noted are these: African green monkey. On the procedure: Vero E6 (ATCC, CRL-1586) cells (1 × 10^4 cells/well) were maintained in a 96-well plate for 12 h. All cells were cultured in complete medium composed of Dulbecco’s Modified Eagle Medium (DMEM) (Gibco, USA), 10% (v/v) serum, 100 U/mL penicillin, and 100 µg/mL streptomycin. The diluted solutions of the tested compounds (200 µL) at the concentrations of 100, 80, 60, 40, 20, 10, and 5 µM were added to wells and incubated for another 24 or 48 h, respectively. At the terminus period of incubation, 50 µL MTT (2.5 mg/mL) was added to each well and continuously incubated at 37 ℃ for 4 h. After disposal of the liquid supernatant, 150 µL DMSO was added to each well, whose absorbance was detected at 490 nm via Microplate Reader (TECAN SunriseTM, China). Cytotoxicity was calculated as follows: Cell viability (%) = (ODexperiment-ODBlank)/(ODcontrol-ODBlank) × 100%. The data were analyzed with GraphPad Prism 9.0. All experiments were performed in triplicates.

For a further data set, the system named is mice. Particulars: cited from earlier work.
The mark [4] stands for this setting: kinetic mode (physcion: affinity mode).

Regarding `COc1c(/C=C/C(=O)c2ccc(O)cc2)ccc(O)c1O` [Licochalcone B], the inhibition at 40 µM at SARS-CoV-2 M^pro [1] is above 90%. Further, the IC50 came out at 5.12 ± 1.53 µM at SARS-CoV-2 M^pro [1] (with 0.01% Triton X-100) and 4.24 ± 1.03 µM at SARS-CoV-2 M^pro [1] (without Triton X-100). The Kd at SARS-CoV-2 M^pro [2] (setting [4]) was 5.64 µM. For the same compound, the kon at SARS-CoV-2 M^pro [2] came to 2210 M⁻¹ s⁻¹. Moreover, on SARS-CoV-2 M^pro [2], the koff was 0.0125 s⁻¹.
Regarding `C[C@@H]1O[C@@H](O[C@@H]2[C@@H](O)[C@H](OCCc3ccc(O)c(O)c3)O[C@H](CO)[C@H]2OC(=O)/C=C/c2ccc(O)c(O)c2)[C@H](O)[C@H](O)[C@H]1O` [Acteoside], on SARS-CoV-2 M^pro [1], the inhibition at 40 µM was above 90%. In addition, half-maximal inhibition on SARS-CoV-2 M^pro [1] (with 0.01% Triton X-100) (IC50) required 1.93 ± 0.76 µM. Also, the midpoint of inhibition against SARS-CoV-2 M^pro [1] (without Triton X-100), the IC50, lay at 2.53 ± 1.02 µM. At SARS-CoV-2 M^pro [2] (setting [4]), this compound returned a Kd of 4.67 µM. On SARS-CoV-2 M^pro [2], the kon came to 847 M⁻¹ s⁻¹ and the koff came to 0.00396 s⁻¹. Further, on SARS-CoV-2 M^pro [3], the “N (binding stoichiometry)” value is reported as 0.48 and the “ΔS (entropy variation)” value stood at 27.3 cal/mol/deg. The same compound gave a CC50 in “in vitro” above 100 µM. The safe dose result in the data set with mice is “up to 800 mg/kg”.
Take `COc1cc(O)c2c(c1)C(=O)c1cc(C)cc(O)c1C2=O` [Physcion]: at SARS-CoV-2 M^pro [1], the inhibition at 40 µM is above 90%. The IC50 against SARS-CoV-2 M^pro [1] (with 0.01% Triton X-100) is 31.6 ± 25.6 µM; on SARS-CoV-2 M^pro [1] (without Triton X-100), 22.1 ± 3.01 µM. Also, the Kd at SARS-CoV-2 M^pro [2] worked out at 167 µM.
In the case of `COc1c(/C=C/C(=O)c2ccc(O)c(CC=C(C)C)c2)ccc(O)c1O` [Licochalcone D], the inhibition at 40 µM on SARS-CoV-2 M^pro [1] is above 90%. For the same compound, the IC50 against SARS-CoV-2 M^pro [1] (with 0.01% Triton X-100) amounted to 29.5 µM. Moreover, the IC50 at SARS-CoV-2 M^pro [1] (without Triton X-100) came out at 5.54 µM. This compound had a Kd on SARS-CoV-2 M^pro [2] (setting [4]) of 4.87 µM. Further, at SARS-CoV-2 M^pro [2], the kon amounted to 2810 M⁻¹ s⁻¹ and the koff came out at 0.0137 s⁻¹.
Regarding `CCCCC/C=C\C/C=C\CCCCCCCC(=O)O` [Linoleic acid, Linoleic Acid], the inhibition at 40 µM on SARS-CoV-2 M^pro [1] is above 90%. On SARS-CoV-2 M^pro [1] (with 0.01% Triton X-100), this compound registered an IC50 of 43 ± 1.93 µM. The compound further returned a Kd at SARS-CoV-2 M^pro [2] of 10.8 µM.

One may read the inhibition as the percentage by which the read-out fell short of the control. The IC50 is the concentration that inhibits the measured activity by half. The Kd is a measure of binding affinity in units of concentration. Broadly, the CC50 is the concentration at which the toxic effect on the cells reaches its halfway point.
